Here are results for 31 molecules from ChEMBL document CHEMBL5291721, “A preclinical secondary pharmacology resource illuminates target-adverse drug reaction associations of marketed drugs” (Nat Commun, 2023).

Where a SMILES comes first, the peptide text is derived from it. [ ]: non-standard residue; d: D form. pGlu = O=C1CC[C@@H](C(=O)O)N1; Thz = O=C(O)[C@@H]1CSCN1

For assay [1], the target named is T1, Androgen receptor (Rattus norvegicus, UniProt P15207).
T1 sequence (P15207 whole entry): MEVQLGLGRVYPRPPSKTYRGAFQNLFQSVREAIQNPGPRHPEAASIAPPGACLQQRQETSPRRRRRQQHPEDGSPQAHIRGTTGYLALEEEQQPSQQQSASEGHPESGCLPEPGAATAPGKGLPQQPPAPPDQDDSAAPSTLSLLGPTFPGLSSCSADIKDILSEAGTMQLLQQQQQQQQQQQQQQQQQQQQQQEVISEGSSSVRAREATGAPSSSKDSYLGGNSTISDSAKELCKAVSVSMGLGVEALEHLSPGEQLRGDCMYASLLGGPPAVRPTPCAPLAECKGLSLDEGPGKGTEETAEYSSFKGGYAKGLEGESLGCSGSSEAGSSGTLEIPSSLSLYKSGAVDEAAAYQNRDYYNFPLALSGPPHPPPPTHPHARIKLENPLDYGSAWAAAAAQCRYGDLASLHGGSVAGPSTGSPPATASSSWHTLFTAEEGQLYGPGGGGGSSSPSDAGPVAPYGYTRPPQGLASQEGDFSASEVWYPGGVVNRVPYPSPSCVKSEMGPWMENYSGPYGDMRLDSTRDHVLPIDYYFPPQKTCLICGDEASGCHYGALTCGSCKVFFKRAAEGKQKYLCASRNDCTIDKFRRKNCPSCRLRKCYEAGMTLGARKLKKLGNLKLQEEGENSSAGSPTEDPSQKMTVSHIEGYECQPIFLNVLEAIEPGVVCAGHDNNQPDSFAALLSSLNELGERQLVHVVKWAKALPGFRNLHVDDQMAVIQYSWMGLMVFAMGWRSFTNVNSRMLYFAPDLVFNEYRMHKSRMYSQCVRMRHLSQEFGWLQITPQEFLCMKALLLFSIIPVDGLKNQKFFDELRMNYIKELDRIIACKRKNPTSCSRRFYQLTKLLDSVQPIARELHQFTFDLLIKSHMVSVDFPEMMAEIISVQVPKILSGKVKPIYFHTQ
Format: functional.

Assay [2] addresses T1, Androgen receptor. The format is functional. The source holds these as a separate data set.
The target in assay [3] is T2, 5-hydroxytryptamine receptor 1A (Homo sapiens, UniProt P08908).
T2 sequence (P08908 whole entry): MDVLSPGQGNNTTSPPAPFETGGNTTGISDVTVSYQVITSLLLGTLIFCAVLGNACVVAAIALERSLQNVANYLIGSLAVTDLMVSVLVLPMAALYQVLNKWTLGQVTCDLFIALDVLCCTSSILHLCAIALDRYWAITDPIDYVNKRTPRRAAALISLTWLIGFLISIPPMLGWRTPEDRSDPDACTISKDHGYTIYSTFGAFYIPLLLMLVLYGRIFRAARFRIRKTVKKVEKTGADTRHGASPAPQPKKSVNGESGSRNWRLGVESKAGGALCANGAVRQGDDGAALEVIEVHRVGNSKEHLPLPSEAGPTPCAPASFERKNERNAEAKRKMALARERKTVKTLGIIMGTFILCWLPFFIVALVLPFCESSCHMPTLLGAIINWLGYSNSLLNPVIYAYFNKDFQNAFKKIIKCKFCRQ

A further assay deals with T3, Progesterone receptor (Homo sapiens, UniProt P06401).
T3 sequence (P06401 whole entry): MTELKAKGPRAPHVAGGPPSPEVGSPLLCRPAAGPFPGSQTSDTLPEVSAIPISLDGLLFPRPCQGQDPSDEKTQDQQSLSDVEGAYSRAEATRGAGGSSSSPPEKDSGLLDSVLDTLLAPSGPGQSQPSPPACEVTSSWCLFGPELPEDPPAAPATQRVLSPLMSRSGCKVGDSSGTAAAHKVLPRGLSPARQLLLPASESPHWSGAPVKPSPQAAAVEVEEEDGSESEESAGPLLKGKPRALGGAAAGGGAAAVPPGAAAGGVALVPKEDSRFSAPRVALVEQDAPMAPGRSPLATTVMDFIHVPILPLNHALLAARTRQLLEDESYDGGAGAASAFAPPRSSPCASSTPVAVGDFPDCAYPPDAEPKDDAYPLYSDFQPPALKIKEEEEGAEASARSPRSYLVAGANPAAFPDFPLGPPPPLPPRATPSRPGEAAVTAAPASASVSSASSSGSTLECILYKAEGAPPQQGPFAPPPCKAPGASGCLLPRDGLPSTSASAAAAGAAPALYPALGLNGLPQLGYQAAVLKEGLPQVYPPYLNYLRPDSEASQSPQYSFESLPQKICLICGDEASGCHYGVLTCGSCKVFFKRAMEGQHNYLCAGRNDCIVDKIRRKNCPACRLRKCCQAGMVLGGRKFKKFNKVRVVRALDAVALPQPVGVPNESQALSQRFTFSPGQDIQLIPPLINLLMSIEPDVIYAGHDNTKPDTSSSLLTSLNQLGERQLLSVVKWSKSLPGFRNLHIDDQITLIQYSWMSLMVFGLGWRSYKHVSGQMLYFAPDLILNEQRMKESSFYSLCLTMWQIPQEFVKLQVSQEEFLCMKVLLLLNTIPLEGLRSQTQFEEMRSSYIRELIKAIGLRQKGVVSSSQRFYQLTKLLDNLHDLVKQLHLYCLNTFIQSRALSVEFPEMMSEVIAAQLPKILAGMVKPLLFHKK

The target of assay [4] is Gamma-aminobutyric acid receptor subunit alpha-1/alpha-2/beta-2/gamma-2 (Homo sapiens, UniProt P14867+P18507+P47869+P47870). Format: functional, cell-based.
Assay [5] addresses Voltage-dependent N-type calcium channel subunit alpha-1B (Rattus norvegicus, UniProt Q02294). The format is functional.
In assay [6] the target is T4, Alpha-1A adrenergic receptor (Homo sapiens, UniProt P35348).
T4 sequence (P35348 whole entry): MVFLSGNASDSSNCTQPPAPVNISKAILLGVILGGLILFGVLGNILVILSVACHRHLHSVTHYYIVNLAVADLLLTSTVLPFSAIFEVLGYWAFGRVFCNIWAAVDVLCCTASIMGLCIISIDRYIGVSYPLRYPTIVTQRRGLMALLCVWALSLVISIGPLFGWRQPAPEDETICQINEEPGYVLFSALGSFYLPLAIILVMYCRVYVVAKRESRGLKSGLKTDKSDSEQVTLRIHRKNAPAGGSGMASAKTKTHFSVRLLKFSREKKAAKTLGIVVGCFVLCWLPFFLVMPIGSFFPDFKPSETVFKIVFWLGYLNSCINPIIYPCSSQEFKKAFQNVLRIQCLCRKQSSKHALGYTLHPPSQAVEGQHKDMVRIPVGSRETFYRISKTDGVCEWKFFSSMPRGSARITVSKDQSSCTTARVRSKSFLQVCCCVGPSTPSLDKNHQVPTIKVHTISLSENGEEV
Note: assay procedure not described here.

Voltage-dependent N-type calcium channel subunit alpha-1B, sequence (Q02294 whole entry): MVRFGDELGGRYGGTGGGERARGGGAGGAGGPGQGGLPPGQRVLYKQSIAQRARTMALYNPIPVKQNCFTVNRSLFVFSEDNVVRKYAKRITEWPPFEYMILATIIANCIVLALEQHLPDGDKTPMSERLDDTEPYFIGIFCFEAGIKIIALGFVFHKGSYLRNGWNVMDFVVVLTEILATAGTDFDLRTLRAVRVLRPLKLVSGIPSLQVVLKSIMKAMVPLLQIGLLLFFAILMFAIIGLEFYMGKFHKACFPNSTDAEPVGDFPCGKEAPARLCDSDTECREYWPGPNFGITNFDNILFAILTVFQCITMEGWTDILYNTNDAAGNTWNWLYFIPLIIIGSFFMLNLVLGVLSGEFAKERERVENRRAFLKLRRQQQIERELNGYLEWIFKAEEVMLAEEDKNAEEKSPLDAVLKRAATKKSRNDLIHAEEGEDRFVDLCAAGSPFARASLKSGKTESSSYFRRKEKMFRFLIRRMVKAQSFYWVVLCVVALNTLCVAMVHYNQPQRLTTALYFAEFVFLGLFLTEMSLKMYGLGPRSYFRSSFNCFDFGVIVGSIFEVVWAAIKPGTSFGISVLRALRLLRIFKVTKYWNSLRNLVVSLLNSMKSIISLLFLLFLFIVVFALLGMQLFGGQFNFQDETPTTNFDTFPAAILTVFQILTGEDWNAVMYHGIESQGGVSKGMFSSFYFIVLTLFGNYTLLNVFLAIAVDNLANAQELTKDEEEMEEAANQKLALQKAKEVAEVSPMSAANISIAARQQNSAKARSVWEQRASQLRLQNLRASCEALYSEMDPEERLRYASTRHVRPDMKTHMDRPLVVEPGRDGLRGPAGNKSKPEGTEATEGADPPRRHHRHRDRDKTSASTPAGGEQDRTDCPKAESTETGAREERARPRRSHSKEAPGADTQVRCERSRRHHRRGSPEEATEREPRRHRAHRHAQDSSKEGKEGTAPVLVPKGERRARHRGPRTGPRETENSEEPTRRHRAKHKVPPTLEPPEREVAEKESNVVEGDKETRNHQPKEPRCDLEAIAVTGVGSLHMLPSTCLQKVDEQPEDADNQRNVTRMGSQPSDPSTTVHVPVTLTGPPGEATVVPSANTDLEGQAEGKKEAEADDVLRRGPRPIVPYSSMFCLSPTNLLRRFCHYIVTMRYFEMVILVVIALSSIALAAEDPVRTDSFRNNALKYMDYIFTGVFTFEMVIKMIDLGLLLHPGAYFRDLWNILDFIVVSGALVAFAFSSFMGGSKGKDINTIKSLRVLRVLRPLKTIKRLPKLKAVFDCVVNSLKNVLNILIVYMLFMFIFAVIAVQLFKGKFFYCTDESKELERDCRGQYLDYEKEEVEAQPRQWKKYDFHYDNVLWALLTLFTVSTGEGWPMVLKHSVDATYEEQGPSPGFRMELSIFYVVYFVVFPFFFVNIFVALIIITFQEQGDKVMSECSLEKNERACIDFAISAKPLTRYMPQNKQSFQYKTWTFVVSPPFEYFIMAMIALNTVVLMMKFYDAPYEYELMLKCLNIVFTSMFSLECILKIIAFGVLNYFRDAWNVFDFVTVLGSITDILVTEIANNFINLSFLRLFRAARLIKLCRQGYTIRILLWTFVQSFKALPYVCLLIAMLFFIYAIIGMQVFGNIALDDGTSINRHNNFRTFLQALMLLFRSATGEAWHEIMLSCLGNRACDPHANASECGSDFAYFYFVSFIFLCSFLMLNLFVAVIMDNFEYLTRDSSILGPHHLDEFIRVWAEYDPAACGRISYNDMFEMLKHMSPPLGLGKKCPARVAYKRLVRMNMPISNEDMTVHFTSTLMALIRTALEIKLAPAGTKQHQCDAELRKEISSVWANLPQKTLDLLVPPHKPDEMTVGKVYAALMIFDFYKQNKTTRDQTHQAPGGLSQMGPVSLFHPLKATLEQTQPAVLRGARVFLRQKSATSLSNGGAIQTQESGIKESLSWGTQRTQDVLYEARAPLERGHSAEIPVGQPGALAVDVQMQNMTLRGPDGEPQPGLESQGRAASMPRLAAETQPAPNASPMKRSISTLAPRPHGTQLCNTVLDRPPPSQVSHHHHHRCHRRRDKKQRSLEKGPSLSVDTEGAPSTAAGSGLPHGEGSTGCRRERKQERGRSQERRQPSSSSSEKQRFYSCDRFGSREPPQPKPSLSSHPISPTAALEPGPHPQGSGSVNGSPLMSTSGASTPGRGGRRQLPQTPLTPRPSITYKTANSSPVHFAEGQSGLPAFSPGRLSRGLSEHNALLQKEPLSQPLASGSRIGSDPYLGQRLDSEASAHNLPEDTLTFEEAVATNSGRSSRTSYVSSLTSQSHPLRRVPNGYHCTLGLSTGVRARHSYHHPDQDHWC
Gamma-aminobutyric acid receptor subunit alpha-1/alpha-2/beta-2/gamma-2, sequence (P14867 whole entry): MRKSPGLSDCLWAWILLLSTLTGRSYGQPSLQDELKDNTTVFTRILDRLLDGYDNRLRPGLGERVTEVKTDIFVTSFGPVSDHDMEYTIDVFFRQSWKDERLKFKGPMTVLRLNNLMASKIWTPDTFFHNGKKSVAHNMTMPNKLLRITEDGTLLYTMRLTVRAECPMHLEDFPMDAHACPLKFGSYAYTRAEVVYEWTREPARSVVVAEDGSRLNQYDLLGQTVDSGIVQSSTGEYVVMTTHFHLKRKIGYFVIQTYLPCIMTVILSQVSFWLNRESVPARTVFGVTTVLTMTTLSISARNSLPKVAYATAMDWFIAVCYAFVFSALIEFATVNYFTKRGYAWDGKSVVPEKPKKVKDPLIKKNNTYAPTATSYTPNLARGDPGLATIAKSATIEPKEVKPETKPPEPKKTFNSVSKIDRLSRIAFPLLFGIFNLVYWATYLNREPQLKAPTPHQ
Gamma-aminobutyric acid receptor subunit alpha-1/alpha-2/beta-2/gamma-2, sequence (P47870 whole entry): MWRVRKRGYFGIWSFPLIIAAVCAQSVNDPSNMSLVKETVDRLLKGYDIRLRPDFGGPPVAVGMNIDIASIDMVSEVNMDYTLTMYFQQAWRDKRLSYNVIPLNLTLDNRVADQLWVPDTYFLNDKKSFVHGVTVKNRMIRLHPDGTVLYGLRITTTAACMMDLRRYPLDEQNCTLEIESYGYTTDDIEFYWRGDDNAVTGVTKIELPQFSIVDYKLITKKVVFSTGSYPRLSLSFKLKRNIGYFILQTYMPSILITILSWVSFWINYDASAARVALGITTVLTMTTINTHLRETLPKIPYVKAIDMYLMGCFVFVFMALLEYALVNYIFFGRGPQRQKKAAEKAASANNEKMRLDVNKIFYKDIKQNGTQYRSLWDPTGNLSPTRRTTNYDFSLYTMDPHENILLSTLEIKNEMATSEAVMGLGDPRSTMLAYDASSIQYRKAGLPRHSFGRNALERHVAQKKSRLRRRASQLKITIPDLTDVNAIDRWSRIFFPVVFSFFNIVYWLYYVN
Gamma-aminobutyric acid receptor subunit alpha-1/alpha-2/beta-2/gamma-2, sequence (P18507 whole entry): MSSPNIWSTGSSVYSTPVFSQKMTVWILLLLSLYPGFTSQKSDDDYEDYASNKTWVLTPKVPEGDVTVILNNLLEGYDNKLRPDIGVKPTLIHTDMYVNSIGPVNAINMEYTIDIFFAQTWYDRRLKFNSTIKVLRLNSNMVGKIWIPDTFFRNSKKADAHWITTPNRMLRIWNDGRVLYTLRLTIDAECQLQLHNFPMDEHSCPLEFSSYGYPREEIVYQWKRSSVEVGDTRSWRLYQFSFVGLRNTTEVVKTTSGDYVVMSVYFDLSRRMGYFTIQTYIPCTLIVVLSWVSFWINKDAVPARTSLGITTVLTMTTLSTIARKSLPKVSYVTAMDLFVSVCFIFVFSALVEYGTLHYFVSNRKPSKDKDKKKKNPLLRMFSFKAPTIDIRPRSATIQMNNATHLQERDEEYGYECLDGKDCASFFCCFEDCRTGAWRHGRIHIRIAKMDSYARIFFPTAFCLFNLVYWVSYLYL
Gamma-aminobutyric acid receptor subunit alpha-1/alpha-2/beta-2/gamma-2, sequence (P47869 whole entry): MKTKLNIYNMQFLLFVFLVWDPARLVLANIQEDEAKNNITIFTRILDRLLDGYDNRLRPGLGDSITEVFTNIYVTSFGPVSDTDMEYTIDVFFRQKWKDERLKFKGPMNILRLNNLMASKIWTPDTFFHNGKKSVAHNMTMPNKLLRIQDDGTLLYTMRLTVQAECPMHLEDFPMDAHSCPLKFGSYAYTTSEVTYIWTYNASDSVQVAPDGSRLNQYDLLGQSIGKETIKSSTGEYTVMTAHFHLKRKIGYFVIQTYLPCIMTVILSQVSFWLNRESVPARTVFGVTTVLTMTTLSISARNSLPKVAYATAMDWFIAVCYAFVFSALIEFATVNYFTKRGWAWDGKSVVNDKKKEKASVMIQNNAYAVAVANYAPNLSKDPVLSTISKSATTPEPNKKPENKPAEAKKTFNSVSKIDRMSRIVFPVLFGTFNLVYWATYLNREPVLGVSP

As a reminder, the AC50 is the concentration at which the activity in the assay is half-maximal. Consider `CC(C)N(CCCCOCC(=O)O)c1cnc(-c2ccccc2)c(-c2ccccc2)n1`, for which the results for the AC50 on Androgen receptor [1] and on Androgen receptor [2] were 19 µM and above 30 µM, respectively.

Take `Cc1cc(=O)n(-c2ccccc2)n1C` [ANTIPYRINE]: the AC50 is above 10 µM in assay [3] and above 30 µM on Progesterone receptor.

As for `Clc1ccc(CCC(Cn2ccnc2)Sc2c(Cl)cccc2Cl)cc1` (configuration not stated) [BUTOCONAZOLE], the AC50 is 9.2 µM at Androgen receptor [1] and above 30 µM at Androgen receptor [2].

`CO/N=C(\C(=O)N[C@@H]1C(=O)N2C(C(=O)O)=C(CSc3nc(=O)c(=O)[nH]n3C)CS[C@H]12)c1csc(N)n1` [CEFTRIAXONE] registered an AC50 in assay [4] above 30 µM.

On to `COc1cc(N)c(Cl)cc1C(=O)NC1CCN(CCCOc2ccc(F)cc2)CC1OC` (configuration not stated) [CISAPRIDE], for which the AC50 in assay [3] is above 10 µM; in assay [5] it was above 10 µM; at Progesterone receptor, above 30 µM.

Take `CCOC(=O)C(C)(C)Oc1ccc(Cl)cc1` [CLOFIBRATE]: the half-maximal activity concentration (AC50) was above 10 µM in assay [3], above 10 µM in assay [5] and above 30 µM on Progesterone receptor.

Regarding `CCCCOc1ccc(C(=O)CCN2CCCCC2)cc1` [DYCLONINE], the AC50 in assay [3] is above 10 µM; in assay [5], above 10 µM; in assay [6] it was above 10 µM; on Progesterone receptor, above 30 µM.

In the case of `CC(C)NC[C@H](O)COc1ccc(CC(N)=O)cc1` [ESATENOLOL], the AC50 in assay [3] is above 10 µM; in assay [5], above 10 µM; in assay [6], above 10 µM; on Progesterone receptor it was above 30 µM.

Take `CCOC(=O)c1ncn2c1CN(C)C(=O)c1cc(F)ccc1-2` [FLUMAZENIL]: the concentration at half-maximal activity (AC50) on Androgen receptor [1] and at Androgen receptor [2] was above 30 µM in each case.

In the case of `CC/C=C\C/C=C\C/C=C\C/C=C\C/C=C\CCCC(=O)OCC` [ICOSAPENT ETHYL], the AC50 was 23 µM on Androgen receptor [1] and above 30 µM at Androgen receptor [2].

Take `NNC(=O)c1ccncc1` [ISONIAZID]: the AC50 in assay [3] was above 10 µM; in assay [5] it was above 10 µM; in assay [6], above 10 µM; on Progesterone receptor, above 30 µM.

Take `O=C1Nc2ccc(Cl)cc2C(c2ccccc2Cl)=NC1O` (configuration not stated) [LORAZEPAM]: the concentration at half-maximal activity (AC50) in assay [3] was above 10 µM; in assay [5], above 10 µM; in assay [6] it was above 10 µM; at Progesterone receptor, 26.2 µM.

Consider `Cc1ccnc2c1NC(=O)c1cccnc1N2C1CC1` [NEVIRAPINE], for which the AC50 in assay [3] was above 10 µM; in assay [5] it was above 10 µM; in assay [6], above 10 µM; on Progesterone receptor, above 30 µM.

Molecule `O=C(NCCO[N+](=O)[O-])c1cccnc1` [NICORANDIL] returned an AC50 in assay [4] above 30 µM.

With `CO[C@H]1C[C@H](O[C@H]2CC[C@@]3(C)[C@H](CC[C@@H]4[C@@H]3CC[C@]3(C)[C@@H](C5=CC(=O)OC5)[C@@H](OC(C)=O)C[C@]43O)C2)O[C@@H](C)[C@@H]1O` [OLEANDRIN], the AC50 in assay [4] was above 30 µM.

The molecule `O=c1[nH]c2ccccc2n1CCCN1CCN(C(c2ccccc2)c2ccccc2)CC1` [OXATOMIDE] registered an AC50 in assay [4] above 30 µM.

In assay [4], `COc1cc2[nH]c(C)c(CCN3CCN(c4ccccc4)CC3)c2cc1OC` [OXYPERTINE] had an AC50 above 30 µM.

As to `Fc1ccc([C@@H]2CCNC[C@H]2COc2ccc3c(c2)OCO3)cc1` [PAROXETINE], the AC50 in assay [3] is above 10 µM; in assay [5] it was above 10 µM; at Progesterone receptor, above 30 µM.

As to `c1ccc(C2(N3CCCCC3)CCCCC2)cc1` [PHENCYCLIDINE], the AC50 (in assay [4]; at Androgen receptor [1]; on Androgen receptor [2]) was above 30 µM in each case.

`OC[C@H]1O[C@@H](Oc2cc(O)cc(/C=C/c3ccc(O)cc3)c2)[C@H](O)[C@@H](O)[C@@H]1O` [PICEID]: the AC50 on Androgen receptor [1] and at Androgen receptor [2] was above 30 µM in each case.

For the molecule `O=C1CC[C@@H](C(=O)N2CSC[C@H]2C(=O)O)N1` [PIDOTIMOD] ([pGlu]-[Thz]-OH), the AC50 on Androgen receptor [1] and on Androgen receptor [2] was above 30 µM throughout.

In the case of `COc1cc(C(=O)OCc2cccc(COC(=O)c3cc(OC)c(OC)c(OC)c3)n2)cc(OC)c1OC` [PIROZADIL], the AC50 (in assay [4]; on Androgen receptor [1]; at Androgen receptor [2]) was above 30 µM in each case.

In the case of `CCC(NC(C)C)C(O)c1ccc(O)c2[nH]c(=O)ccc12` (configuration not stated) [PROCATEROL], the AC50 on Androgen receptor [1] and at Androgen receptor [2] was above 30 µM in each case.

`CCC(=O)O[C@](Cc1ccccc1)(c1ccccc1)[C@H](C)CN(C)C` [PROPOXYPHENE]: the AC50 is above 10 µM in assay [3], above 10 µM in assay [5], above 10 µM in assay [6] and above 30 µM on Progesterone receptor.

For the molecule `CCc1nc(N)nc(N)c1-c1ccc(Cl)cc1` [PYRIMETHAMINE], the AC50 in assay [3] was above 10 µM.

On to `O=c1c(O)c(-c2ccc(O)c(O)c2)oc2cc(O)cc(O)c12` [QUERCETIN], for which the figures for the AC50 (in assay [3]; in assay [5]; at Progesterone receptor) were above 10 µM, above 10 µM and 14.1 µM, respectively.

Take `CCN1CCCC1CNC(=O)c1cc(S(=O)(=O)CC)ccc1OC` (configuration not stated) [SULTOPRIDE]: the AC50 (in assay [4]; at Androgen receptor [1]; at Androgen receptor [2]) was above 30 µM throughout.

Regarding `C=CCN1CCc2nc(N)sc2CC1` [TALIPEXOLE], the AC50 on Androgen receptor [1] and on Androgen receptor [2] was above 30 µM throughout.

As for `CCOC(=O)c1ccc(C#Cc2ccc3c(c2)C(C)(C)CCS3)nc1` [TAZAROTENE], the AC50 in assay [3] was above 10 µM; in assay [5], above 10 µM; at Progesterone receptor, above 30 µM.

For the molecule `CCOC(=O)[C@@H](N)Cc1ccc(-c2cc(O[C@H](c3ccc(Cl)cc3-n3ccc(C)n3)C(F)(F)F)nc(N)n2)cc1` [TELOTRISTAT ETHYL], the AC50 (in assay [4]; on Androgen receptor [1]; at Androgen receptor [2]) was above 30 µM each time.

Take `CC(C(=O)O)c1ccc2c(c1)CC(=O)c1ccccc1S2` (configuration not stated) [ZALTOPROFEN]: the concentration at half-maximal activity (AC50) at Androgen receptor [1] and on Androgen receptor [2] was above 30 µM in each case.
